Assay results as given in the NIST ThermoML archive (doi:10.1016/j.fluid.2015.07.010).
Numbers after ± are expanded uncertainties.

Conditions: for kinematic viscosity: Liquid, Scattered Light Surfacing

CCF [fluoroethane]
Conditions	surface tension liquid-gas [mN/m]
244.13 K, Capillary rise	16.72 ± 0.5
246.15 K, Capillary rise	16.42 ± 0.5
248.13 K, Capillary rise	16.18 ± 0.49
250.05 K, Capillary rise	15.87 ± 0.48
252.1 K, Capillary rise	15.59 ± 0.47
254.15 K, Capillary rise	15.26 ± 0.46
256.05 K, Capillary rise	14.97 ± 0.45
258.13 K, Capillary rise	14.69 ± 0.44
260.05 K, Capillary rise	14.38 ± 0.43
262.08 K, Capillary rise	14.13 ± 0.43
264.13 K, Capillary rise	13.85 ± 0.42
266.1 K, Capillary rise	13.58 ± 0.41
268.08 K, Capillary rise	13.27 ± 0.4
270.1 K, Capillary rise	13 ± 0.39
272.04 K, Capillary rise	12.69 ± 0.38
274.1 K, Capillary rise	12.4 ± 0.38
276.03 K, Capillary rise	12.08 ± 0.37
278.14 K, Capillary rise	11.81 ± 0.36
280.14 K, Capillary rise	11.54 ± 0.35
282.14 K, Capillary rise	11.25 ± 0.34
284.14 K, Capillary rise	10.95 ± 0.33
286.12 K, Capillary rise	10.67 ± 0.32
288.13 K, Capillary rise	10.38 ± 0.32
290.12 K, Capillary rise	10.1 ± 0.31
292.13 K, Capillary rise	9.82 ± 0.3
293.43 K, Surface Light Scattering	9.46 ± 0.28
294.12 K, Capillary rise	9.53 ± 0.29
296.12 K, Capillary rise	9.24 ± 0.28
298.1 K, Capillary rise	8.96 ± 0.27
300.11 K, Capillary rise	8.66 ± 0.26
302.17 K, Capillary rise	8.37 ± 0.26
303.14 K, Surface Light Scattering	8.16 ± 0.25
304.11 K, Capillary rise	8.08 ± 0.25
305.13 K, Capillary rise	7.95 ± 0.24
306.12 K, Capillary rise	7.83 ± 0.24
308.12 K, Capillary rise	7.54 ± 0.23
310.18 K, Capillary rise	7.27 ± 0.22
312.17 K, Capillary rise	7 ± 0.21
313.11 K, Surface Light Scattering	6.78 ± 0.2
314.18 K, Capillary rise	6.71 ± 0.21
316.17 K, Capillary rise	6.44 ± 0.2
318.16 K, Capillary rise	6.17 ± 0.19
320.17 K, Capillary rise	5.86 ± 0.18
322.18 K, Capillary rise	5.61 ± 0.17
323.14 K, Surface Light Scattering	5.46 ± 0.16
324.18 K, Capillary rise	5.39 ± 0.17
326.17 K, Capillary rise	5.08 ± 0.16
328.16 K, Capillary rise	4.84 ± 0.15
330.17 K, Capillary rise	4.6 ± 0.14
332.17 K, Capillary rise	4.33 ± 0.14
333.15 K, Surface Light Scattering	4.2 ± 0.13
334.16 K, Capillary rise	4.1 ± 0.13
343.14 K, Surface Light Scattering	3 ± 0.09
353.12 K, Surface Light Scattering	1.89 ± 0.06
363.11 K, Surface Light Scattering	0.92 ± 0.03
373.09 K, Surface Light Scattering	0.13 ± 0.01

Conditions	kinematic viscosity [m2/s]
293.43 K	1.81e-07 ± 2.3e-08
303.14 K	1.66e-07 ± 2.2e-08
313.11 K	1.52e-07 ± 2e-08
323.14 K	1.42e-07 ± 1.9e-08
333.15 K	1.32e-07 ± 1.8e-08
343.14 K	1.22e-07 ± 1.7e-08
353.12 K	1.12e-07 ± 1.5e-08
363.11 K	1.03e-07 ± 1.5e-08
373.09 K	8.97e-08 ± 1.3e-08
